Results reported in patent US11149036B2, “3-(1H-pyrazol-4-yl)pyridine allosteric modulators of the M4 muscarinic acetylcholine receptor” (Merck Sharp & Dohme Corp., priority 2017, dated 2021).

Target: T1, human M4 muscarinic acetylcholine receptor (Homo sapiens, UniProt P08173)
T1 construct: expressed in transfected cells; host or cells: CHO-K1
T1 sequence (P08173 1-479): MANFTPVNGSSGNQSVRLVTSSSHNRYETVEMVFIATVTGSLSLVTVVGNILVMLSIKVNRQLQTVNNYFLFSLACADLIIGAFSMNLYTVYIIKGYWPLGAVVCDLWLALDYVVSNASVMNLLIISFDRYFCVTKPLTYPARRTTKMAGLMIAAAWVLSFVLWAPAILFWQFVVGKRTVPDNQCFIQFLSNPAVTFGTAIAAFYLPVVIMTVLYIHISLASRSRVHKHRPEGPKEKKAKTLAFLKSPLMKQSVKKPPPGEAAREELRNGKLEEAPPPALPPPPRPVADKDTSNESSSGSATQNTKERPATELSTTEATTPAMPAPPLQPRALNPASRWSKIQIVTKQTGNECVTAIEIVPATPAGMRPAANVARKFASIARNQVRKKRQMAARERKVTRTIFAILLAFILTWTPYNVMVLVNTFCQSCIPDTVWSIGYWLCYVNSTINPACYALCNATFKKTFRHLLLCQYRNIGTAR
Test: human FLIPR-based M4 PAM assay (CHO-K1 cells with human M4 receptor and Gaqi5, calcium dye fluorescence)
Type: cell-based
Conditions: inflection point (IP) of dose response curve, acetylcholine added at 20% of maximum response, read-out: M4 FLIPPR Hu IP
Summary of the method: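 CHO-K1 cells stably expressing human M4 with chimeric Gaqi5, calcium-dye loaded ~1 h at 37° C; compound added at increasing concentrations 4 min before acetylcholine at an EC20 concentration (sometimes a further EC70 addition).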

Row | SMILES | EC50 [nM]
1 | Cc1ccc(-c2cnn(CC3(C)CCCC3)c2)c(-c2ccc3ccn(C)c(=O)c3c2)n1 [Example 35, 2-methyl-7-(6-methyl-3-(1-((1-methylcyclopentyl)methyl)-1H-pyrazol-4-yl)pyridin-2-yl)isoquinolin-1(2H)-one] | 26
2 | Cc1ccc(-c2cnn(CC3CCC(F)(F)C3)c2)c(-c2ccc3cccnc3c2)n1 (single isomer, unassigned) [Example 130, (R or S)-7-(3-(1-((3,3-difluorocyclopentyl)methyl)-1H-pyrazol-4-yl)-6-methylpyridin-2-yl)quinoline] | 25
3 | Cc1cc(-c2cnn(CC3(F)CCCC3)c2)c(-c2cnc3c(c2)C(=O)N(CC2CC2)C3)nc1Cl [Example 116, 3-(6-chloro-3-(1-((1-fluorocyclopentyl)methyl)-1H-pyrazol-4-yl)-5-methylpyridin-2-yl)-6-(cyclopropylmethyl)-6,7-dihydro-5H-pyrrolo [3,4-b]pyridin-5-one] | 61
4 | COc1cc2ccc(-c3nc(Cl)c(C)cc3-c3cnn(CC4(C)CCCC4)c3)cc2nn1 [Example 119, 7-(6-chloro-5-methyl-3-(1-((1-methylcyclopentyl)methyl)-1H-pyrazol-4-yl)pyridin-2-yl)-3-methoxycinnoline] | 5
5 | Cc1ccc(-c2cnn(CC3CCCC3)c2)c(-c2ccc(C(O)C(F)(F)F)cc2)n1 (centres unmarked) [Example 9, 1-(4-(3-(1-(cyclopentylmethyl)-1H-pyrazol-4-yl)-6-methylpyridin-2-yl)phenyl)-2,2,2-trifluoroethan-1-ol] | 50
6 | N#Cc1ccc(-c2cnn(CC3(F)CCCC3)c2)c(-c2cnc3c(c2)C(=O)N(CCF)C3)n1 [Example 47, 5-(1-((1-fluorocyclopentyl)methyl)-1H-pyrazol-4-yl)-6-(6-(2-fluoroethyl)-5-oxo-6,7-dihydro-5H-pyrrolo[3,4-b]pyridin-3-yl)picolinonitrile] | 56
7 | CC1(Cn2cc(-c3ccc(C#N)nc3-c3cnc4c(c3)C(=O)OC4)cn2)CCCC1 [Example 73, 5-(1-((1-methylcyclopentyl)methyl)-1H-pyrazol-4-yl)-6-(5-oxo-5,7-dihydrofuro [3,4-b]pyridin-3-yl) picolinonitrile] | 41
8 | Cc1cc(-c2cnn(CC3(F)CCCC3)c2)c(-c2ccn3ccnc3c2)nc1F [Example 94, 7-(6-fluoro-3-(1-((1-fluorocyclopentyl)methyl)-1H-pyrazol-4-yl)-5-methylpyridin-2-yl) imidazo[1,2-a]pyridine] | 35
9 | Cn1cnc2cc(-c3nccc(F)c3-c3cnn(CC4(C)CCCC4)c3)cnc21 [Example 107, 6-(4-fluoro-3-(1-((1-methylcyclopentyl)methyl)-1H-pyrazol-4-yl)pyridin-2-yl)-3-methyl-3H-imidazo[4,5-b] pyridine] | 36
10 | Cc1ccc(-c2cnn(CC3(F)CCCC3)c2)c(-c2ccc3c(c2)C(=O)N(CC2CC2)C3)n1 [Example 19, 2-(cyclopropylmethyl)-6-(3-(1-((1-fluorocyclopentyl)methyl)-1H-pyrazol-4-yl)-6-methylpyridin-2-yl)isoindolin-1-one] | 20
11 | Cc1ccc(-c2cnn(CC3CCCC3)c2)c(-c2ccc3cc(F)cnc3c2)n1 [Example 13, 7-(3-(1-(cyclopentylmethyl)-1H-pyrazol-4-yl)-6-methylpyridin-2-yl)-3-fluoroquinoline] | 23
12 | C#Cc1ccc(-c2cnn(CC3CCCC3)c2)c(-c2ccc3cccnc3c2)n1 [Example 168, 7-(3-(1-(cyclopentylmethyl)-1H-pyrazol-4-yl)-6-ethynylpyridin-2-yl)quinoline] | 24
13 | Cc1ccc(-c2cnn(CC3(F)CCCC3)c2)c(-c2cnc3c(c2)ncn3C)n1 [Example 18, 6-(3-(1-((1-fluorocyclopentyl)methyl)-1H-pyrazol-4-yl)-6-methylpyridin-2-yl)-3-methyl-3H-imidazo[4,5-b]pyridine] | 187
14 | CC1(Cn2cc(-c3ccc(C#N)nc3-c3ccc4cc(F)nnc4c3)cn2)CCCC1 [Example 128, 6-(3-fluorocinnolin-7-yl)-5-(1-((1-methylcyclopentyl)methyl)-1H-pyrazol-4-yl)picolinonitrile] | 35
15 | Cc1ccc(-c2cnn(CC3(F)CCCC3)c2)c(-c2ccc3cc(C(F)(F)F)cnc3c2)n1 [Example 14, 7-(3-(1-((1-fluorocyclopentyl)methyl)-1H-pyrazol-4-yl)-6-methylpyridin-2-yl)-3-(trifluoromethyl)quinoline] | 30
16 | CC1(Cn2cc(-c3c(C#N)ccnc3-c3ccc4cccnc4c3)cn2)CCCC1 [Example 103, 3-(1-((1-methylcyclopentyl)methyl)-1H-pyrazol-4-yl)-2-(quinolin-7-yl)isonicotinonitrile] | 45
17 | CC1(Cn2cc(-c3ccc(C#N)nc3-c3ccn4c(F)cnc4c3)cn2)CCCC1 [Example 74, 6-(3-fluoroimidazo[1,2-a]pyridin-7-yl)-5-(1-((1-methylcyclopentyl)methyl)-1H-pyrazol-4-yl)picolinonitrile] | 58
18 | Cc1ccc(-c2cnn(CC3CCCC3)c2)c(-c2ccc3cc(N)nnc3c2)n1 [Example 158, 7-(3-(1-(cyclopentylmethyl)-1H-pyrazol-4-yl)-6-methylpyridin-2-yl)cinnolin-3-amine] | 19
19 | CC1(Cn2cc(-c3ccc(C#N)nc3-c3ccc4cc(CO)nnc4c3)cn2)CCCC1 [Example 163, 6-(3-(hydroxymethyl)cinnolin-7-yl)-5-(1-((1-methylcyclopentyl)methyl)-1H-pyrazol-4-yl)picolinonitrile] | 46

Continued by falling EC50, values first:

Row | EC50 [nM] | SMILES
20 | 107 | Cc1nc2cc(-c3nc(C#N)ccc3-c3cnn(CC4(F)CCCC4)c3)ccc2o1 [Example 49, 5-(1-((1-fluorocyclopentyl)methyl)-1H-pyrazol-4-yl)-6-(2-methylbenzo[d]oxazol-5-yl)picolinonitrile]
21 | 86 | Cn1cnc2cc(-c3nc(C(F)F)ccc3-c3cnn(CC4(F)CCCC4)c3)cnc21 [Example 108, 6-(6-(difluoromethyl)-3-(1-((1-fluorocyclopentyl)methyl)-1H-pyrazol-4-yl)pyridin-2-yl)-3-methyl-3H-imidazo[4,5-b] pyridine]
22 | 82 | CC1(Cn2ncc(-c3ccc(C#N)nc3-c3ccn4ccnc4c3)c2Cl)CCCC1 [Example 81, 5-(5-chloro-1-((1-methylcyclopentyl)methyl)-1H-pyrazol-4-yl)-6-(imidazo[1,2-a]pyridin-7-yl)picolinonitrile]
23 | 76 | N#Cc1ccc(-c2cnn(CC3(F)CCCC3)c2)c(-c2cnc3oc(C4CC4)nc3c2)n1 [Example 53, 6-(2-cyclopropyloxazolo[5,4-b]pyridin-6-yl)-5-(1-((1-fluorocyclopentyl)methyl)-1H-pyrazol-4-yl)picolinonitrile]
24 | 67 | Cn1cc2ccc(-c3nc(C#N)c(F)cc3-c3cnn(CC4(F)CCCC4)c3)cc2n1 [Example 89, 3-fluoro-5-(1-((1-fluorocyclopentyl)methyl)-1H-pyrazol-4-yl)-6-(2-methyl-2H-indazol-6-yl) picolinonitrile]
25 | 66 | CC1(Cn2cc(-c3ccc(C#N)nc3-c3ccn4cncc4c3)cn2)CCCC1 [Example 77, 6-(imidazo[1,5-a]pyridin-7-yl)-5-(1-((1-methylcyclopentyl)methyl)-1H-pyrazol-4-yl)picolinonitrile]
26 | 50 | Cc1nc2cc(-c3nc(C#N)c(C)cc3-c3cnn(CC4(F)CCCC4)c3)ccn2n1 [Example 141, 5-(1-((1-fluorocyclopentyl)methyl)-1H-pyrazol-4-yl)-3-methyl-6-(2-methyl-[1,2,4]triazolo[1,5-a]pyridin-7-yl)picolinonitrile]
27 | 35 | Cc1ccc(-c2cnn(CC3(C)CCCC3)c2)c(-c2ccc3c(c2)C(=O)OC3)n1 [Example 33, 6-(6-methyl-3-(1-((1-methylcyclopentyl)methyl)-1H-pyrazol-4-yl)pyridin-2-yl) isobenzofuran-1(3H)-one]
28 | 31 | CC1(Cn2cc(-c3ccc(C#N)nc3-c3ccn4ncnc4c3)cn2)CCCC1 [Example 75, 6-([1,2,4]triazolo[1,5-a]pyridin-7-yl)-5-(1-((1-methylcyclopentyl)methyl)-1H-pyrazol-4-yl)picolinonitrile]
29 | 26 | N#Cc1ccc(-c2cnn(CC3C[C@H](F)[C@@H](F)C3)c2)c(-c2ccn3ccnc3c2)n1 [Example 71, 5-(1-(((3S,4S)-3,4-difluorocyclopentyl)methyl)-1H-pyrazol-4-yl)-6-(imidazo[1,2-a]pyridin-7-yl)picolinonitrile]
30 | 23 | CC1(Cn2cc(-c3ccc(C#N)nc3-c3ccn4cc(C(F)F)nc4c3)cn2)CCCC1 [Example 76, 6-(2-(difluoromethyl)imidazo [1,2-a]pyridin-7-yl)-5-(1-((1-methylcyclopentyl)methyl)-1H-pyrazol-4-yl)picolinonitrile]
31 | 17 | COc1cc2ccc(-c3nc(C)c(C#N)cc3-c3cnn(CC4(C)CCCC4)c3)cc2nn1 [Example 105, 6-(3-methoxycinnolin-7-yl)-2-methyl-5-(1-((1-methylcyclopentyl)methyl)-1H-pyrazol-4-yl)nicotinonitrile]
32 | 17 | Cc1ccc(-c2cnn(C[C@@H]3CC[C@@H](F)C3)c2)c(-c2ccc3cccnc3c2)n1 (single isomer, unassigned) [Example 132, 7-(3-(1-(((1R,3R) or (1S,3S)-3-fluorocyclopentyl)methyl)-1H-pyrazol-4-yl)-6-methylpyridin-2-yl)quinoline]
